# Values quoted from earlier work, collected in US6821979B2, “Synergistic enhancement of cognitive ability” (Blanchette Rockefeller Neurosciences Institute, priority 2002, dated 2004).
# Legend:
# carbonic anhydrase [1] = details: conscious animals; CNS administration; other sensory and/or locomotor behaviors not affected
# carbonic anhydrase [2] = details: single dose; electroencephalogram during rapid-eye-movement sleep
# carbonic anhydrase [3] = details: rats; CNS administration
# [4] = theophylline alone; literature studies
structure (smiles),measurement,setting,value
CC(=O)Nc1nnc(S(N)(=O)=O)s1 [acetazolamide],spatial learning,carbonic anhydrase [1],impairs spatial learning
same,reduction of magnitudes of θ-wave frequency activity,carbonic anhydrase [2],50%
c1c[nH]cn1 [imidazole],ability to learn a water-maze task and to recall the maze from memory,carbonic anhydrase [3],significantly enhances
N[C@@H](Cc1ccccc1)C(=O)O [phenylalanine],ability to learn a water-maze task and to recall the maze from memory,carbonic anhydrase [3],significantly enhances
Cn1c(=O)c2[nH]cnc2n(C)c1=O [theophylline],effect on cognition,[4],insignificant
